Results reported in patent US20170107229A1, “SUBSTITUTED TETRAHYDROPYRIDOTHIENOPYRIMIDINES” (BAYER PHARMA AKTIENGESELLSCHAFT, priority 2014, published 2017).

molecular target: T1, human full-length MKNK1 (Homo sapiens, UniProt Q9BUB5, T385D); test: MKNK1 kinase high ATP assay (TR-FRET); assay type: biochemical; conditions: high ATP (2 mM final), 15 min preincubation with enzyme, GST-MKNK1 (T344D)
T1 construct: GST (N); purchased Carna Biosciences 02-145; host or cells: insect cells (baculovirus expression system)
In short: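 GST-tagged human full-length MKNK1 (T344D), insect-cell expressed, preincubated 15 min at 22 °C with compound, then reacted 30 min at 22 °C with 2 mM ATP and 0.06 μM biotinylated peptide (final) in HEPES pH 7.5. Phospho-peptide detected by TR-FRET (665/620 nm ratio) after EDTA stop; normalised to no-inhibitor and no-enzyme controls.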

T1 sequence (Q9BUB5 1-424 isoform Q9BUB5-2 T344D): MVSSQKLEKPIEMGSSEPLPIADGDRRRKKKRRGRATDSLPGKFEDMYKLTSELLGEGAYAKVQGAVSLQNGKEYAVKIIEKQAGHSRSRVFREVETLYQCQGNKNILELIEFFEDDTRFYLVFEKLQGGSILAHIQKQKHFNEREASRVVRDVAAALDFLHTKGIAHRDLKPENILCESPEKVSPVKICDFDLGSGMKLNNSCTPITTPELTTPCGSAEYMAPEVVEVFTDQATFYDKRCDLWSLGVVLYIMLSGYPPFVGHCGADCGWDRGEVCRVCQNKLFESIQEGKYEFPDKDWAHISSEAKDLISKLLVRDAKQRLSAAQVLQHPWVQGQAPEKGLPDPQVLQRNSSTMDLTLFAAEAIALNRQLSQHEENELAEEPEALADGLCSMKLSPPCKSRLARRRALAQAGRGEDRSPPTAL

IC50 | Compound
40 nM | COc1nc2[nH]ncc2cc1Nc1ncnc2sc3c(c12)CCN(S(C)(=O)=O)C3 [Example 50, N-(6-Methoxy-1H-pyrazolo[3,4-b]pyridin-5-yl)-7-(methylsulfonyl)-5,6,7,8-tetrahydropyrido[4′,3′:4,5]thieno[2,3-d]pyrimidin-4-amine]
9 nM | COc1cc2[nH]ncc2cc1Nc1ncnc2sc3c(c12)CCN(C(=O)N1[C@@H](C)COC[C@@H]1C)C3 [Example 101, [(3S,5S)-3,5-Dimethylmorpholin-4-yl]{4-[(6-methoxy-1H-indazol-5-yl)amino]-5,8-dihydropyrido[4′,3′:4,5]thieno[2,3-d]pyrimidin-7(6H)-yl}methanone]
37 nM | CN(C)C(=O)N1CCc2c(sc3ncnc(Nc4cc5cn[nH]c5cc4Br)c23)C1 [Example 29, 4-[(6-Bromo-1H-indazol-5-yl)amino]-N,N-dimethyl-5,8-dihydropyrido[4′,3′:4,5]thieno[2,3-d]pyrimidine-7(6H)-carboxamide]
